# In patent publication US6861070B1, “Medicinal compositions for treating evacuatory insufficiency” (Yamanouchi Pharmaceutical Co., Ltd., priority 1998, dated 2005):
# Counter-ions that a name gives are not always drawn.
# Test system: patients diagnosed to be voiding dysfunction associated with neurogenic bladder
# Assay: Clinical test to patients of voiding dysfunction associated with neurogenic bladder
# Type: in vivo
# Procedure: Test Example 1. Clinical Test to Patients of Voiding Dysfunction Associated with Neurogenic Bladder. Clinical test was carried out under the following conditions to the causes of voiding dysfunction associated with neurogenic bladder. Patients: Sixty patients diagnosed to be voiding dysfunction associated with neurogenic bladder (excluding the cases where the cause was peripheral diseases). Used drug and method of administration: Capsule preparation containing 0.2 mg of tamsulosin hydrochloride or placebo capsule was used and two capsules were orally administered after breakfast (once daily) for four weeks. […] Approximate safety was evaluated as no problem, little problems, some problems and problems according to the presence/absence and degree of side effect, change of blood pressure and pulse rate, and abnormal change in clinical date. Impression by the patient was judged to be much improvement, improvement, some improvement, no change, some worsening, worsening and much worsening. Finally, degree of improvement as a whole, approximate safety and impression by patient were taken into consideration and the final judgement for the Usefulness wan judged to be any of the […]—very useful, useful, somewhat useful and not preferable.
# [1] = compared with placebo group, two 0.2 mg capsules orally once daily, four weeks
# [2] = share of patients (12/20), two 0.2 mg capsules orally once daily, four weeks
# [3] = two 0.2 mg capsules orally once daily after breakfast, four weeks, n = 16
# [4] = two 0.2 mg capsules orally once daily after breakfast, four weeks, n = 23
smiles,measurement,setting,value
"CCOc1ccccc1OCCN[C@H](C)Cc1ccc(OC)c(S(N)(=O)=O)c1 [Tamsulosin Hydrochloride, (R)(−)-5-{2-{[2-(o-ethoxyphenoxy)ethyl}amino]propyl}-2-methoxybenzene-sulfonamide]","Approximate safety (side effect, blood pressure, pulse rate, clinical data)",[1],no significant difference
same,Impression by patient,[1],no significant difference
same,"Usefulness as a therapeutic agent (final judgement, in words)",impression by the patients further taken into consideration,useful as a therapeutic agent
same,Improvement of subjective symptom and objective observation and improvement as a whole (in words),patients suffering from voiding dysfunction associated with neurogenic bladder,significant improvement
same,"Degree of Improvement in Subjective Symptoms, ≧Medium Improvement","share of patients (10/23), two 0.2 mg capsules orally once daily, four weeks",43.5%
same,"Degree of Improvement as a Whole, ≧Medium Improvement",[2],60.0%
same,"Degree of Improvement in Objective Observation, ≧Medium Improvement",[2],80.0%
same,"Usefulness, ≧Useful","share of patients (12/23), two 0.2 mg capsules orally once daily, four weeks",52.2%
same,Average Urinary Flow (Changing Amt),[3],1.2 ± 1.66 mL/s
same,Maximum Urinary Flow (Changing Amt),[3],2.5 ± 3.01 mL/s
same,Residual Urine Rate (Changing Amt),[3],−13 ± 20.0%
same,Residual Urine Amount (Changing Amt),[4],-18 ± 80.1 mL
same,Total Score (Changing Rate) of subjective symptoms (1)-(8),[4],−31 ± 34.2%
